# Reference: article PMC10139140, “Synthesis of Novel 2-(Cyclopentylamino)thiazol-4(5H)-one Derivatives with Potential Anticancer, Antioxidant, and 11β-HSD Inhibitory Activities” (International Journal of Molecular Sciences, 2023)
# Legend:
# [1] = tested on: human colon carcinoma (Caco-2); test: MTS metabolic activity assay, Caco-2 cells; format: cell-based; conditions: Homo sapiens, 72 h, read-out: Cell metabolic activity (MTS), % of untreated control
# Description: (§1) The BJ (CRL-2522), Caco-2 (HTB-37), PANC-1 (CRL-1469), U-118 MG (HTB-15), SK-MEL-30 (ACC 151), and MDA-MB-231 (HTB-26) cell lines were purchased from ATCC (Manassas, VA, USA) or DSMZ (Braunschweig, GERMANY). Cells were cultured in accordance with manufacturers' recommendations in a DMEM, MEM, or RPMI-1640 (Sigma, Saint Louis, MO, USA; Gibco, Waltham, MA, USA), supplemented with 10% FBS, except for Caco-2 (20%) (Thermo Fisher Scientific, Waltham, MA, USA) and 1% antibiotic mix solution (penicillin, streptomycin; Thermo Fisher Scientific, Waltham, MA, USA) in a humidified atmosphere with 5% CO2 at 37 °C. All cell lines were cultured in T75 cell culture flasks or cell culture dishes to reach 80–90% confluency and seeded at a standard density of 5 × 10^3 cells/0.32 cm^2, except for BJ cells at 2 × 10^3 cells/0.32 cm^2.
# (§2) The MTS ((MTS: 3-(4,5-dimethylthiazol-2-yl)-5-(3-carboxymethoxyphenyl)-2-(4-sulfophenyl)-2H-tetrazolium)) assay was performed following previously reported method. Briefly, cells were seeded at a standard density into 96-well flat-bottom plates and incubated for 24 h, followed by the treatment. The various concentrations of compounds were prepared and treated for the next 72 h. MTS solution was added for 3h and incubated at standard conditions, protected from light. Finally, the absorbance was read at […] and 620 nm wavelengths using a Synergy H1 microplate reader (BioTek, Santa Clara, CA, USA). The results are presented as %, while untreated control cells were considered 100%.
# [2] = tested on: human breast carcinoma (MDA-MB-231); test: MTS metabolic activity assay, MDA-MB-231 cells; format: cell-based; conditions: Homo sapiens, 72 h, read-out: Cell metabolic activity (MTS), % of untreated control
# Description: as §1, §2
# BJ cells = test: MTS metabolic activity assay, BJ cells; format: cell-based; conditions: Homo sapiens, 72 h, read-out: Cell metabolic activity (MTS), % of untreated control
# Description: as §1, §2
# glioma (U-118 MG) = test: MTS metabolic activity assay, U-118 MG cells; format: cell-based; conditions: 72 h
# Description: as §1, §2
# 11β-HSD2 = molecular target: T1, 11β-HSD2 (Homo sapiens, UniProt P80365); test: Inhibition of 11β-HSD2 (cortisol to cortisone, human microsomes, cortisol ELISA); format: biochemical; conditions: 2.5 h, 37 °C
# T1 construct: Human liver microsomes were used as a source of 11β-HSD2 enzyme; tissue XenoTech Lot No. 1710160; host or cells: human kidney microsomes, mixed gender (method text says human liver microsomes)
# T1 sequence (P80365 1-405): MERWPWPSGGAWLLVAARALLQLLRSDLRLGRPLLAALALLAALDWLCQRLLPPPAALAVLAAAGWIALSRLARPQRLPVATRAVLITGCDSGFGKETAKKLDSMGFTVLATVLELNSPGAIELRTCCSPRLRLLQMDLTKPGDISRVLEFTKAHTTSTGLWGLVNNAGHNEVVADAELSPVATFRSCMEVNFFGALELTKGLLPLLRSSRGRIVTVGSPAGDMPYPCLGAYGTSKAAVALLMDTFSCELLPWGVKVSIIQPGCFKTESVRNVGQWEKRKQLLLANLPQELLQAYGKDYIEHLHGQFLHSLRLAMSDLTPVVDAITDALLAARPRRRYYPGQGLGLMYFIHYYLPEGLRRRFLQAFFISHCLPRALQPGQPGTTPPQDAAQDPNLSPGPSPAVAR
# Description: The resulting solution with a final volume of 100 µL was incubated for 2.5 h at 37 °C. […] The level of unreacted cortisol was measured by a commercially available ELISA kit.
# [3] = tested on: skin melanoma (SK-MEL-30); test: MTS metabolic activity assay, SK-MEL-30 cells; format: cell-based; conditions: Homo sapiens, 72 h, read-out: Cell metabolic activity (MTS), % of untreated control
# Description: as §1, §2
# 11β-HSD1 = molecular target: T2, 11β-HSD1 (Homo sapiens, UniProt P28845); test: Inhibition of 11β-HSD1 (cortisone to cortisol, human liver microsomes, cortisol ELISA); format: biochemical
# T2 construct: Human liver microsomes were used as a source of 11β-HSD1 enzyme; tissue XenoTech Lot No. 1410013; host or cells: pooled human liver microsomes, mixed gender
# Description: The resulting solution with a final volume of 100 µL was incubated for 2.5 h at 37 °C. To stop the reaction, 10 µL of a 100 µM solution of 18β-glycyrrhetinic acid in PBS was added. The level of cortisol obtained in the reaction was measured by commercially available ELISA kit.
# As a control, analogous tests without the addition of inhibitors were used. Half the inhibitory concentration (causing 50% reduction of cortisol or cortisone) was read from the chart.
# [4] = tested on: human pancreatic carcinoma (PANC-1); test: MTS metabolic activity assay, PANC-1 cells; format: cell-based; conditions: Homo sapiens, 72 h, read-out: Cell metabolic activity (MTS), % of untreated control
# Description: as §1, §2
# T2 sequence (P28845 whole entry): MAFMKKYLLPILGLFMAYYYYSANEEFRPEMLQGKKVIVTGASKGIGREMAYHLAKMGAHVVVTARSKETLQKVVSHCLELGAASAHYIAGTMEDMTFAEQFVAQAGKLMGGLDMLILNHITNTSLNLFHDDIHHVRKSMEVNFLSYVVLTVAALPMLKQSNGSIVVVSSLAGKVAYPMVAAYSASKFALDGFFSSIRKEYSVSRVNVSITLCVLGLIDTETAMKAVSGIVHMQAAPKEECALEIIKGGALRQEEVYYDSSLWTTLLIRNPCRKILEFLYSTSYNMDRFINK
smiles,measurement,setting,value
"CC(C)C1SC(NC2CCCC2)=NC1=O (stereo not shown) [Compound 3d, 2-(cyclopentylamino)-5-isopropylthiazol-4(5H)-one]",viability at 10 µM,"[1]; Caco-2, 10 µM",88.8%
same,viability at 20 µM,"[1]; Caco-2, 20 µM",82.8%
same,viability at 50 µM,"[1]; Caco-2, 50 µM",90.8%
same,viability at 100 µM,"[1]; Caco-2, 100 µM",83.1%
same,viability at 200 µM,"[1]; Caco-2, 200 µM",84.8%
same,viability at 300 µM,"[1]; Caco-2, 300 µM",85.3%
same,viability at 500 µM,"[1]; Caco-2, 500 µM",70.1%
same,viability at 10 µM,"[2]; MDA-MB-231, 10 µM",92.8%
same,viability at 20 µM,"[2]; MDA-MB-231, 20 µM",91.2%
same,viability at 50 µM,"[2]; MDA-MB-231, 50 µM",95.5%
same,viability at 100 µM,"[2]; MDA-MB-231, 100 µM",94.4%
same,viability at 200 µM,"[2]; MDA-MB-231, 200 µM",86.6%
same,viability at 300 µM,"[2]; MDA-MB-231, 300 µM",81.8%
same,viability at 500 µM,"[2]; MDA-MB-231, 500 µM",57.6%
same,viability at 10 µM,BJ cells; 10 µM,109%
same,viability at 20 µM,BJ cells; 20 µM,106%
same,viability at 50 µM,BJ cells; 50 µM,109%
same,viability at 100 µM,BJ cells; 100 µM,110%
same,viability at 200 µM,BJ cells; 200 µM,116%
same,viability at 300 µM,BJ cells; 300 µM,118%
same,viability at 500 µM,BJ cells; 500 µM,118%
same,viability at 10 µM,"glioma (U-118 MG); Homo sapiens, U-118-MG, U118-MG, 10 µM, read-out: Cell metabolic activity (MTS), % of untreated control",118%
same,viability at 20 µM,"glioma (U-118 MG); Homo sapiens, U-118-MG, U118-MG, 20 µM, read-out: Cell metabolic activity (MTS), % of untreated control",111%
same,viability at 50 µM,"glioma (U-118 MG); Homo sapiens, U-118-MG, U118-MG, 50 µM, read-out: Cell metabolic activity (MTS), % of untreated control",114%
same,viability at 100 µM,"glioma (U-118 MG); Homo sapiens, U-118-MG, U118-MG, 100 µM, read-out: Cell metabolic activity (MTS), % of untreated control",112%
same,viability at 200 µM,"glioma (U-118 MG); Homo sapiens, U-118-MG, U118-MG, 200 µM, read-out: Cell metabolic activity (MTS), % of untreated control",114%
same,viability at 300 µM,"glioma (U-118 MG); Homo sapiens, U-118-MG, U118-MG, 300 µM, read-out: Cell metabolic activity (MTS), % of untreated control",115%
same,viability at 500 µM,"glioma (U-118 MG); Homo sapiens, U-118-MG, U118-MG, 500 µM, read-out: Cell metabolic activity (MTS), % of untreated control",120%
same,highest increase in proliferation (cell metabolic activity),"glioma (U-118 MG); U-118 MG, range given for the named substances together",115 to 144%
same,inhibition at 10 µM,11β-HSD2,38.6 ± 3.69%
same,viability at 10 µM,"[3]; SK-MEL-30, 10 µM",97.2%
same,viability at 20 µM,"[3]; SK-MEL-30, 20 µM",97.1%
same,viability at 50 µM,"[3]; SK-MEL-30, 50 µM",97.7%
same,viability at 100 µM,"[3]; SK-MEL-30, 100 µM",102%
same,viability at 200 µM,"[3]; SK-MEL-30, 200 µM",92.3%
same,viability at 300 µM,"[3]; SK-MEL-30, 300 µM",78.2%
same,viability at 500 µM,"[3]; SK-MEL-30, 500 µM",59.4%
same,IC50,11β-HSD1,460 ± 70 nM
same,inhibition at 10 µM,"11β-HSD1; 10 µM, 2.5 h, 37 °C",82.9 ± 2.62%
same,viability at 10 µM,"[4]; PANC-1, 10 µM",107%
same,viability at 20 µM,"[4]; PANC-1, 20 µM",103%
same,viability at 50 µM,"[4]; PANC-1, 50 µM",105%
same,viability at 100 µM,"[4]; PANC-1, 100 µM",116%
same,viability at 200 µM,"[4]; PANC-1, 200 µM",113%
same,viability at 300 µM,"[4]; PANC-1, 300 µM",119%
same,viability at 500 µM,"[4]; PANC-1, 500 µM",118%
